From patent US20020035061A1, “COMPOSITIONS AND METHODS FOR TREATING INFECTIONS USING CATIONIC PEPTIDES ALONE OR IN COMBINATION WITH ANTIBIOTICS” (priority 1996, published 2002)
Converted amounts (≈) assume the structure as drawn. “And” between values parts separate entries of the source, which are not always exact repeats. Equal values may be shown once. Read-outs that look alike come from different tables or passages of the source.

Key:
Assay in all cases: microbe, parasite or virus in culture
Format in all cases: cell-based
[1] = test system: bacterial isolates; conditions: for Peptide MIC Alone: 4. Gentamicin; for FIC: peptide + Gentamicin
[2] = test system: vancomycin / teicoplanin resistant enterococci
[3] = test system: microorganisms with acquired resistance; conditions: for Peptide MIC Alone: Gentamicin section; for FIC: peptide + Gentamicin
[4] = test system: inherently resistant microorganisms; conditions: for Peptide MIC Alone: Amikacin section; for FIC: peptide + Amikacin
[5] = Enterococcus faecalis, read-out: Amikacin MIC Alone, E. faecalis EFS008
[6] = Enterococcus faecium, read-out: Amikacin MIC Alone, E. faecium EFM004
[7] = Pseudomonas aeruginosa, read-out: Amikacin MIC Alone, P. aeruginosa PA022
[8] = S. maltophilia (strain line r400 not shown)

NCC[C@H](O)C(=O)N[C@@H]1C[C@H](N)[C@@H](O[C@H]2O[C@H](CN)[C@@H](O)[C@H](O)[C@H]2O)[C@H](O)[C@H]1O[C@H]1O[C@H](CO)[C@@H](O)[C@H](N)[C@H]1O [Amikacin]
Amikacin MIC Alone ([1]; A. baumannii ABI001): 32 µg/mL
MIC ([1]; Acinetobacter baumannii, read-out: Amikacin MIC Alone, A. baumannii ABI001): 64 µg/mL (≈ 109 µM)
MIC ([1]; Acinetobacter baumannii, read-out: Amikacin MIC Alone, A. baumannii ABI003): 16 µg/mL (≈ 27.3 µM)
Amikacin MIC Alone ([1]; B. cepacia BC005): 128 µg/mL
MIC ([1]; Burkholderia cepacia, read-out: Amikacin MIC Alone, B. cepacia BC003): 32 µg/mL (≈ 54.6 µM)
MIC ([1]; Burkholderia cepacia, read-out: Amikacin MIC Alone, B. cepacia BC005): 64 µg/mL (≈ 109 µM)
Amikacin MIC Alone ([1]; E. faecalis EFS008): 64 µg/mL
Amikacin MIC Alone ([1]; E. faecium EFM004): >128 µg/mL
MIC [1, 5]: 32 µg/mL (≈ 54.6 µM)
MIC [1, 6]: 128 µg/mL (≈ 219 µM)
MIC ([1]; Escherichia coli, read-out: Amikacin MIC Alone, E. coli ECO022): 16 µg/mL (≈ 27.3 µM)
Amikacin MIC Alone ([1]; P. aeruginosa PA022): 128 µg/mL
MIC [1, 7]: 64 µg/mL (≈ 109 µM)
MIC ([1]; Pseudomonas aeruginosa, read-out: Amikacin MIC Alone, P. aeruginosa PA037): 16 µg/mL (≈ 27.3 µM)
Amikacin MIC Alone ([1]; S. epidermidis SE003): 64 µg/mL
Amikacin MIC Alone ([1]; S. maltophilia SMA018): >128 µg/mL
Amikacin MIC Alone ([1]; S. maltophilia SMA037): 64 µg/mL
MIC ([1]; Staphylococcus aureus, MRSA, read-out: Amikacin MIC Alone, S. aureus SA014 MRSA): 32 µg/mL (≈ 54.6 µM)
MIC ([1]; Staphylococcus aureus, MRSA, read-out: Amikacin MIC Alone, S. aureus SA025 MRSA): 32 µg/mL (≈ 54.6 µM)
MIC ([1]; Staphylococcus epidermidis, read-out: Amikacin MIC Alone, S. epidermidis SE002): 64 µg/mL (≈ 109 µM)
MIC ([1]; Staphylococcus epidermidis, read-out: Amikacin MIC Alone, S. epidermidis SE003): 32 µg/mL (≈ 54.6 µM)
MIC ([1]; Stenotrophomonas maltophilia, read-out: Amikacin MIC Alone, S. maltophilia SMA018): 128 µg/mL (≈ 219 µM)
MIC ([1]; Stenotrophomonas maltophilia, read-out: Amikacin MIC Alone, S. maltophilia SMA021): 128 µg/mL (≈ 219 µM)
MIC ([1]; Stenotrophomonas maltophilia, read-out: Amikacin MIC Alone, S. maltophilia SMA022): > 128 µg/mL
MIC ([1]; Stenotrophomonas maltophilia, read-out: Amikacin MIC Alone, S. maltophilia SMA036): > 128 µg/mL
MIC ([1]; Stenotrophomonas maltophilia, read-out: Amikacin MIC Alone, S. maltophilia SMA037): 128 µg/mL (≈ 219 µM)
MIC ([1]; Stenotrophomonas maltophilia, read-out: Amikacin MIC Alone, S. maltophilia SMA060): > 128 µg/mL
MIC ([1]; Stenotrophomonas maltophilia, read-out: Amikacin MIC Alone, S. maltophilia SMA063): > 128 µg/mL
MIC ([1]; Stenotrophomonas maltophilia, read-out: Amikacin MIC Alone, S. maltophilia SMA064): > 128 µg/mL
Amikacin MIC Alone ([2]; E. faecium EFM004): 64 µg/mL and >128 µg/mL
MIC [2, 5]: 64 µg/mL (≈ 109 µM)
MIC [2, 6]: 128 µg/mL (≈ 219 µM)
MIC ([2]; Enterococcus faecium, read-out: Amikacin MIC Alone, E. faecium EFM020): 32 µg/mL (≈ 54.6 µM)
MIC [3, 7]: 64 µg/mL (≈ 109 µM)
MIC ([4]; Acinetobacter baumannii, read-out: Amikacin MIC + Peptide, A. baumannii, peptide Deber A2KA2): 16 µg/mL
MIC ([4]; Acinetobacter baumannii, read-out: Amikacin MIC + Peptide, A. baumannii, peptide MBI 11B16CN): 4 µg/mL
MIC ([4]; Acinetobacter baumannii, read-out: Amikacin MIC + Peptide, A. baumannii, peptide MBI 27): 16 µg/mL
MIC ([4]; Acinetobacter baumannii, read-out: Amikacin MIC + Peptide, A. baumannii, peptide MBI 29F1): 16 µg/mL
MIC ([4]; Acinetobacter baumannii, read-out: Amikacin MIC Alone, A. baumannii): 32 µg/mL (≈ 54.6 µM)
Amikacin MIC + Peptide ([4]; B. cepacia, peptide MBI 29A3): 32 µg/mL
MIC ([4]; Burkholderia cepacia, read-out: Amikacin MIC + Peptide, B. cepacia, peptide MBI 27): 16 µg/mL
MIC ([4]; Burkholderia cepacia, read-out: Amikacin MIC + Peptide, B. cepacia, peptide MBI 29A3): 16 µg/mL
Amikacin MIC + Peptide ([4]; S. aureus MRSA, peptide MBI 11B16CN): 4 µg/mL
Amikacin MIC + Peptide ([4]; S. maltophilia, peptide MBI 11B16CN): 4 µg/mL
Amikacin MIC + Peptide ([4]; S. maltophilia, peptide MBI 21A2): 16 µg/mL
Amikacin MIC + Peptide ([4]; S. maltophilia, peptide MBI 26): 16 µg/mL
Amikacin MIC + Peptide ([4]; S. maltophilia, peptide MBI 29A3): 16 µg/mL
MIC ([4]; Staphylococcus aureus, MRSA, read-out: Amikacin MIC + Peptide, S. aureus MRSA, peptide Deber A2KA2): 0.125 µg/mL
MIC ([4]; Staphylococcus aureus, MRSA, read-out: Amikacin MIC + Peptide, S. aureus MRSA, peptide MBI 11B16CN): 8 µg/mL
MIC ([4]; Staphylococcus aureus, MRSA, read-out: Amikacin MIC + Peptide, S. aureus MRSA, peptide MBI 21A2): 2 µg/mL
MIC ([4]; Staphylococcus aureus, MRSA, read-out: Amikacin MIC + Peptide, S. aureus MRSA, peptide MBI 27): 16 µg/mL
MIC ([4]; Staphylococcus aureus, MRSA, read-out: Amikacin MIC + Peptide, S. aureus MRSA, peptide MBI 29F1): 16 µg/mL
MIC ([4]; Staphylococcus aureus, MRSA, read-out: Amikacin MIC Alone, S. aureus MRSA): 32 µg/mL (≈ 54.6 µM)
MIC ([4]; Stenotrophomonas maltophilia, read-out: Amikacin MIC + Peptide, S. maltophilia, peptide MBI 11B16CN): 8 µg/mL
MIC ([4]; Stenotrophomonas maltophilia, read-out: Amikacin MIC + Peptide, S. maltophilia, peptide MBI 21A2): 8 µg/mL
MIC ([4]; Stenotrophomonas maltophilia, read-out: Amikacin MIC + Peptide, S. maltophilia, peptide MBI 26): 8 µg/mL
MIC ([4]; Stenotrophomonas maltophilia, read-out: Amikacin MIC + Peptide, S. maltophilia, peptide MBI 29A3): 8 µg/mL
MIC ([4]; Stenotrophomonas maltophilia, read-out: Amikacin MIC + Peptide, S. maltophilia, peptide MBI 29F1): 8 µg/mL
MIC ([4]; Stenotrophomonas maltophilia, read-out: Amikacin MIC Alone, S. maltophilia): 128 µg/mL (≈ 219 µM)

KKAAAKAAAAAKAAWAAKAAAKKKK [Deber A2KA2, reference compound]
Peptide MIC Alone ([1]; A. baumannii ABI001): >128 µg/mL
Peptide MIC Alone ([1]; A. baumannii ABI002): >128 µg/mL
Peptide MIC Alone ([1]; A. calcoaceticus AC001): >128 µg/mL
Peptide MIC Alone ([1]; P. aeruginosa PA022): >128 µg/mL
Peptide MIC Alone ([1]; P. aeruginosa PA041): >128 µg/mL
Peptide MIC Alone [1, 8]: >128 µg/mL
Peptide MIC Alone ([1]; S. maltophilia SMA017): >128 µg/mL
Gentamicin MIC + Peptide ([1]; A. baumannii ABI001): 32 µg/mL
Peptide MIC + Gentamicin ([1]; A. baumannii ABI001): 8 µg/mL
Gentamicin MIC + Peptide ([1]; A. baumannii ABI002): 32 µg/mL
Peptide MIC + Gentamicin ([1]; A. baumannii ABI002): 0.125 µg/mL
Gentamicin MIC + Peptide ([1]; A. calcoaceticus AC001): 4 µg/mL
Peptide MIC + Gentamicin ([1]; A. calcoaceticus AC001): 16 µg/mL
Gentamicin MIC + Peptide ([1]; P. aeruginosa PA022): 16 µg/mL
Peptide MIC + Gentamicin ([1]; P. aeruginosa PA022): 4 µg/mL
Gentamicin MIC + Peptide ([1]; P. aeruginosa PA041): 8 µg/mL
Peptide MIC + Gentamicin ([1]; P. aeruginosa PA041): 0.125 µg/mL
Gentamicin MIC + Peptide [1, 8]: 64 µg/mL
Peptide MIC + Gentamicin [1, 8]: 0.125 µg/mL
Gentamicin MIC + Peptide ([1]; S. maltophilia SMA017): 64 µg/mL
Peptide MIC + Gentamicin ([1]; S. maltophilia SMA017): 0.125 µg/mL
FIC ([1]; A. baumannii ABI001): 0.53
FIC ([1]; A. baumannii ABI002): 0.50
FIC ([1]; A. calcoaceticus AC001): 0.56
FIC ([1]; P. aeruginosa PA022): 0.52
FIC ([1]; P. aeruginosa PA041): 0.50
FIC [1, 8]: 0.50
FIC ([1]; S. maltophilia SMA017): 0.50
Amikacin MIC + Peptide ([2]; E. faecalis EFS008): 8 µg/mL
Peptide MIC + Amikacin ([2]; E. faecalis EFS008): 16 µg/mL
Peptide MIC Alone ([2]; E. faecalis EFS008, Amikacin section): >128 µg/mL
FIC ([2]; peptide + Amikacin, E. faecalis EFS008): 0.19
Gentamicin MIC + Peptide ([3]; A. calcoaceticus AC001): 4 µg/mL
Peptide MIC + Gentamicin ([3]; A. calcoaceticus AC001): 16 µg/mL
Peptide MIC Alone ([3]; A. calcoaceticus AC001): >128 µg/mL
Gentamicin MIC + Peptide ([3]; P. aeruginosa PA041): 4 µg/mL
Peptide MIC + Gentamicin ([3]; P. aeruginosa PA041): 64 µg/mL
Peptide MIC Alone ([3]; P. aeruginosa PA041): >128 µg/mL
FIC ([3]; A. calcoaceticus AC001): 0.56
FIC ([3]; P. aeruginosa PA041): 0.50
Peptide MIC + Amikacin ([4]; A. baumannii): 32 µg/mL
Peptide MIC Alone ([4]; A. baumannii): >128 µg/mL
Peptide MIC + Amikacin ([4]; S. aureus MRSA): 8 µg/mL
Peptide MIC Alone ([4]; S. aureus MRSA): 16 µg/mL
FIC ([4]; A. baumannii): 0.63
FIC ([4]; S. aureus MRSA): 0.50
